Measurements reported in patent publication US10988523B2, “Modified lipidated Relaxin B chain peptides and their therapeutic use” (Sanofi, priority 2018, dated 2021).
*1 amine or outer side, *2 acyl side, *3 side chain or, on linkers, in order; H or OH if unused. Where a SMILES comes first, the peptide text is derived from it. Side-chain parts run from the residue outwards. [ ]: non-standard residue; d: D form. The star is where a group is joined. PEG12 = NCCOCCOCCOCCOCCOCCOCCOCCOCCOCCOCCOCCOCCC(=O)O; γGlu = O=C(O)[C@H](CCC(=O)[*:2])N[*:1]; Stearoyl = CCCCCCCCCCCCCCCCCC(=O)*; Palmitoyl = CCCCCCCCCCCCCCCC(=O)*; αMeK = C[C@](N)(CCCCN)C(=O)O; αMeS = C[C@](N)(CO)C(=O)O; Nle = CCCC[C@H](N)C(=O)O; AEEA = NCCOCCOCC(=O)O; Aib = CC(C)(N)C(=O)O

Key:
[1] = Pharmacokinetic (PK) determination after i.v. or s.c. administration to rats; format: in vivo, Sprague Dawley rats; details: Sprague Dawley, Rat PK; for C0 / half-life: iv, 1 mg/kg i.v.; for C0: extrapolated plasma concentration at t=0, read-out: C0; for half-life / Cmax / Tmax / bioavailability: plasma; for half-life: read-out: T½ (converted); for Cmax / Tmax: sc, 3 mg/kg s.c.; for bioavailability: subcutaneous, 3 mg/kg s.c. vs 1 mg/kg i.v., dose-corrected AUC ratio
Procedure: Prior to the testing of a peptide batch, its purity (HPLC-UV) was determined. Dose was corrected for presence of salts, solvent and purity.
Sprague Dawley rats were dosed with study peptide at a dose of 1 mg/kg intravenously (i.v.) or 3 mg/kg subcutaneously (s.c.) as a solution in PBS (0.2 mg/ml and 0.6 mg/ml respectively).
Plasma samples were analyzed after protein precipitation via liquid chromatography mass spectrometry (LC/MS).
PK parameters and half-life were calculated using Phoenix 64 (WinNonlin 6.4)-Pharsight (Certara™) (non-compartment model). Values below the limit of quantification (BLQ) were replaced by zero for subsequent calculations and PK analysis.
T½: in-vivo half life, time required for test compound plasma concentration to be divided by two during the PK experiment.
C0: Extrapolated test compound plasma concentration at t=0 time point (i.v. route).
Cmax: maximal test compound plasma concentration at the indicated time point (s.c. route).
Tmax: Time point where Cmax is attained.
F %: s.c. vs i.v. bioavailability, dose-corrected area under curve (AUC) s.c. route divided by AUC i.v.

RXFP1 = molecular target: T1, RXFP1 (Homo sapiens, UniProt Q9HBX9); assay: OVCAR5 cAMP assay (HTRF), RXFP1 agonist activity; format: cell-based; details: for EC50: OVCAR5 cells, cAMP HTRF, read-out: EC50 (nM), OVCAR 5 cells (cAMP); for Emax: OVCAR-5, maximal cAMP relative to H2-relaxin maximum (100%), read-out: EMax, OVCAR 5 cells (cAMP)
T1 construct: OVCAR5 cells expressing endogenous RXFP1; endogenous in cells; host or cells: OVCAR5 cells
T1 sequence (Q9HBX9 1-757): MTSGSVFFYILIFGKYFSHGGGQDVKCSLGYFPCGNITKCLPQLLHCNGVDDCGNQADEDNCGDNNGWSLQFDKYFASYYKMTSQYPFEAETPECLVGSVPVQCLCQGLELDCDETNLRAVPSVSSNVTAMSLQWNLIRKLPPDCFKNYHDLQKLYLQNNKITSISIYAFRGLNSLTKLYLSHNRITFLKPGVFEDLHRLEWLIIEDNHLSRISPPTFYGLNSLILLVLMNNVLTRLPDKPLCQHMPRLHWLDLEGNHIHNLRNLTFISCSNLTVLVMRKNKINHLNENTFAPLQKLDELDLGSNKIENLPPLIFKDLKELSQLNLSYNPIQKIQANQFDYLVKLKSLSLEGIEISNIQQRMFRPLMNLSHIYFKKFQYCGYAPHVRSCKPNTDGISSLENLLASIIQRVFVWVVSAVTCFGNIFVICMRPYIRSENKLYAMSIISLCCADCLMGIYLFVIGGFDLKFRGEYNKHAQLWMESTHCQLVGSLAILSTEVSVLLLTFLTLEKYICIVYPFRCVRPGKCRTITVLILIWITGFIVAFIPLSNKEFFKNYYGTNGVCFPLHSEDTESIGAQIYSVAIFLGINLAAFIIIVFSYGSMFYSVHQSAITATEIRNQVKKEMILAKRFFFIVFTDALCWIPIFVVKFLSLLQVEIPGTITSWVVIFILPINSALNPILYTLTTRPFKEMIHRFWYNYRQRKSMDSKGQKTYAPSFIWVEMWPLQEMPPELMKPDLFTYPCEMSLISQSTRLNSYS
Procedure, shortened: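 OVCAR5 cells (endogenous RXFP1) pretreated 40 min at 37° C with 1 mM IBMX, then exposed to peptides in serum-free medium for 30 min at 37° C. Lysate cAMP read by HTRF; EC50 from variable-slope sigmoidal fit; Emax as % of H2-relaxin maximal cAMP in same run.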

| Compound | C0 [1] [nM] | half-life [1] [h] | Cmax [1] [nM] | Tmax [1] [h] | bioavailability [1] [%] | EC50 (RXFP1) [nM] | Emax (RXFP1) [%] |
| --- | --- | --- | --- | --- | --- | --- | --- |
| CCCCCCCCCCCCCCCCCC(=O)N[C@@H](CCC(=O)N[C@@H](CCC(=O)N[C@@H](CCC(=O)N[C@@H](CCC(=O)NCCCC[C@H](NC(=O)CCOCCOCCOCCOCCOCCOCCOCCOCCOCCOCCOCCOCCNC(=O)[C@H](CCCCNC(C)=O)NC(=O)[C@H](CCCCN)NC(=O)[C@H](CCCNC(=N)N)NC(=O)[C@](C)(CCCCN)NC(=O)[C@H](CO)NC(=O)[C@H](Cc1c[nH]c2ccccc12)NC(=O)[C@@H](NC(=O)[C@H](CO)NC(=O)[C@H](CCCC)NC(=O)CNC(=O)[C@H](CCC(=O)O)NC(=O)C(C)(C)NC(=O)C(C)(C)NC(=O)[C@@H](NC(=O)[C@H](CCCCNC(C)=O)NC(=O)[C@H](C)NC(=O)[C@H](CCCNC(=N)N)NC(=O)[C@@H](NC(=O)[C@H](CCCCN)NC(=O)[C@H](CCC(=O)O)NC(=O)[C@H](CCCNC(=N)N)NC(=O)CNC(=O)[C@H](CCC(=O)O)NC(=O)[C@H](CC(C)C)NC(C)=O)C(C)C)[C@@H](C)CC)[C@@H](C)O)C(N)=O)C(=O)O)C(=O)O)C(=O)O)C(=O)O [compound 42] (Ac-LEGREKVRAK(Ac)I[Aib][Aib]EG[Nle]STWS[αMeK]RKK(Ac)[PEG12]K([γGlu-γGlu-γGlu-γGlu-Stearoyl])-NH2) | 3000 | 3.7 | 2000 | 5 | 65 | 0.01 | 91 |
| CCCCCCCCCCCCCCCC(=O)N[C@@H](CCC(=O)N[C@@H](CCC(=O)N[C@@H](CCC(=O)N[C@@H](CCC(=O)NCCCC[C@H](NC(=O)COCCOCCNC(=O)COCCOCCNC(=O)COCCOCCNC(=O)[C@H](CCCCNC(C)=O)NC(=O)[C@H](CCCCN)NC(=O)[C@H](CCCNC(=N)N)NC(=O)[C@](C)(CCCCN)NC(=O)[C@H](CO)NC(=O)[C@H](Cc1c[nH]c2ccccc12)NC(=O)[C@@H](NC(=O)[C@H](CO)NC(=O)[C@H](CCCC)NC(=O)CNC(=O)[C@H](CCC(=O)O)NC(=O)C(C)(C)NC(=O)C(C)(C)NC(=O)[C@@H](NC(=O)[C@H](CCCCNC(C)=O)NC(=O)[C@H](C)NC(=O)[C@H](CCCNC(=N)N)NC(=O)[C@@H](NC(=O)[C@H](CCCCN)NC(=O)[C@H](CCC(=O)O)NC(=O)[C@H](CCCNC(=N)N)NC(=O)CNC(=O)[C@H](CCC(=O)O)NC(=O)[C@H](CC(C)C)NC(C)=O)C(C)C)[C@@H](C)CC)[C@@H](C)O)C(N)=O)C(=O)O)C(=O)O)C(=O)O)C(=O)O [compound 17] (Ac-LEGREKVRAK(Ac)I[Aib][Aib]EG[Nle]STWS[αMeK]RKK(Ac)[AEEA][AEEA][AEEA]K([γGlu-γGlu-γGlu-γGlu-Palmitoyl])-NH2) | 3500 | 5.8 | 2400 | 8 | 73 | 0.17 | 95 |
| CCCCCCCCCCCCCCCCCC(=O)N[C@@H](CCC(=O)N[C@@H](CCC(=O)N[C@@H](CCC(=O)N[C@@H](CCC(=O)NCCCC[C@H](NC(=O)CCOCCOCCOCCOCCOCCOCCOCCOCCOCCOCCOCCOCCNC(=O)[C@H](CCCCNC(C)=O)NC(=O)[C@H](CCCCN)NC(=O)[C@H](CCCNC(=N)N)NC(=O)[C@](C)(CCCCN)NC(=O)[C@](C)(CO)NC(=O)[C@H](Cc1c[nH]c2ccccc12)NC(=O)[C@@H](NC(=O)[C@H](CO)NC(=O)[C@H](CCCC)NC(=O)CNC(=O)[C@H](CCC(=O)O)NC(=O)C(C)(C)NC(=O)C(C)(C)NC(=O)[C@@H](NC(=O)[C@H](CCCCNC(C)=O)NC(=O)[C@H](C)NC(=O)[C@H](CCCNC(=N)N)NC(=O)[C@@H](NC(=O)[C@H](CCCCN)NC(=O)[C@H](CCC(=O)O)NC(=O)[C@H](CCCNC(=N)N)NC(=O)CNC(=O)[C@H](CCC(=O)O)NC(=O)[C@H](CC(C)C)NC(C)=O)C(C)C)[C@@H](C)CC)[C@@H](C)O)C(N)=O)C(=O)O)C(=O)O)C(=O)O)C(=O)O [compound 40] (Ac-LEGREKVRAK(Ac)I[Aib][Aib]EG[Nle]STW[αMeS][αMeK]RKK(Ac)[PEG12]K([γGlu-γGlu-γGlu-γGlu-Stearoyl])-NH2) | 7080 | 3.6 | 1540 | 6 | 66 | 0.02 | 90 |
| CCCCCCCCCCCCCCCC(=O)N[C@@H](CCC(=O)NCCCC[C@H](NC(=O)CC[C@H](NC(=O)CC[C@H](NC(=O)CC[C@H](NC(=O)COCCOCCNC(=O)COCCOCCNC(=O)COCCOCCNC(=O)COCCOCCNC(=O)[C@H](CCCCNC(C)=O)NC(=O)[C@H](CCCCN)NC(=O)[C@H](CCCNC(=N)N)NC(=O)[C@](C)(CCCCN)NC(=O)[C@H](CO)NC(=O)[C@H](Cc1c[nH]c2ccccc12)NC(=O)[C@@H](NC(=O)[C@H](CO)NC(=O)[C@H](CCCC)NC(=O)CNC(=O)[C@H](CCC(=O)O)NC(=O)C(C)(C)NC(=O)C(C)(C)NC(=O)[C@@H](NC(=O)[C@H](CCCCNC(C)=O)NC(=O)[C@H](C)NC(=O)[C@H](CCCNC(=N)N)NC(=O)[C@@H](NC(=O)[C@H](CCCCN)NC(=O)[C@H](CCC(=O)O)NC(=O)[C@H](CCCNC(=N)N)NC(=O)CNC(=O)[C@H](CCC(=O)O)NC(=O)[C@H](CC(C)C)NC(C)=O)C(C)C)[C@@H](C)CC)[C@@H](C)O)C(=O)O)C(=O)O)C(=O)O)C(N)=O)C(=O)O [compound 136] (Ac-LEGREKVRAK(Ac)I[Aib][Aib]EG[Nle]STWS[αMeK]RKK(Ac)[AEEA][AEEA][AEEA][AEEA][γGlu][γGlu][γGlu]K([γGlu-Palmitoyl])-NH2) | 3000 | 2.9 | 1870 | 8 | 86 | 0.03 | 92 |
| CCCCCCCCCCCCCCCC(=O)N[C@@H](CCC(=O)NCCCC[C@H](NC(=O)CC[C@H](NC(=O)CC[C@H](NC(=O)CC[C@H](NC(=O)COCCOCCNC(=O)COCCOCCNC(=O)COCCOCCNC(=O)COCCOCCNC(=O)[C@H](CCCCNC(C)=O)NC(=O)[C@H](CCCCN)NC(=O)[C@H](CCCNC(=N)N)NC(=O)[C@](C)(CCCCN)NC(=O)[C@H](CO)NC(=O)[C@H](Cc1ccccc1)NC(=O)[C@@H](NC(=O)[C@H](CO)NC(=O)[C@H](CCCC)NC(=O)CNC(=O)[C@H](CCC(=O)O)NC(=O)C(C)(C)NC(=O)C(C)(C)NC(=O)[C@@H](NC(=O)[C@H](CCCCNC(C)=O)NC(=O)[C@H](C)NC(=O)[C@H](CCCNC(=N)N)NC(=O)[C@@H](NC(=O)[C@H](CCCCN)NC(=O)[C@H](CCC(=O)O)NC(=O)[C@H](CCCNC(=N)N)NC(=O)CNC(=O)[C@H](CCC(=O)O)NC(=O)[C@H](CC(C)C)NC(C)=O)C(C)C)[C@@H](C)CC)[C@@H](C)O)C(=O)O)C(=O)O)C(=O)O)C(N)=O)C(=O)O [compound 145] (Ac-LEGREKVRAK(Ac)I[Aib][Aib]EG[Nle]STFS[αMeK]RKK(Ac)[AEEA][AEEA][AEEA][AEEA][γGlu][γGlu][γGlu]K([γGlu-Palmitoyl])-NH2) | 3440 | 5.4 | 1670 | 8 | 70 | 0.4 | 99 |
